This is an account of results in patent US10004791B2, “Peptide vaccines against PCSK9” (AFFIRIS AG, priority 2014, dated 2018).

The assay is described as follows: Reduction of total cholesterol (TC) in treated animals, additional experiments (1 μg net peptide, five injections). To be noted: 5 animals per group, 5 x 1 μg net peptide. The class given is in vivo, mice. Here is the method:
All plasma samples were collected two weeks after the final immunization and equality treated. Total cholesterol (TC) measurements were performed simultaneously for all samples and side by side compared to their related controls (originals sequence and negative control). The simultaneous quantitative measurement of the plasma TC levels in mg/dL was measured by LabAssay™ Cholesterol Kit (Wako). In details, upon incubation with the chromogen reagent containing cholesterol esterase, the cholesterol esters in the samples were decomposed into free cholesterol and fatty acids. Subsequently the free cholesterol was oxidized by the cholesterol oxidase, leading to the simultaneously release of hydrogen peroxide. The produced hydrogen peroxide let DAOS and 4-Aminoantipyrin oxidize and condensate quantitatively by peroxidase (HRP), which produced blue pigment. Optical density was measured at 600 nm and quantification of the TC was calculated according to a standard curve.
In order to evaluate the ability of selected VARIOTOPE® vaccine candidates to reduce TC and to compare the magnitude of TC reduction in VARIOTOPE® treated animals with the TC reduction in animals treated with a vaccine containing the original sequence, 5 to 10 mice per group were injected five times in 2 week intervals with vaccines containing 1 μg of net peptide. […]

For the sequence PEEDGTRFHRQASL [SEQ ID NO: 24], the “TC values in comparison to the control group (FIG. 4)” value (control group set as 100%, result in words) is “possesses the ability to reduce TC levels compared to the negative control”. The “TC levels compared to the original peptide containing vaccine (FIG. 5)” value (original sequence group set to 0%, positive = higher TC) is on record as “+9%”.
